This passage reports melting point results from US7342012B2, “Inhibitors of αLβ2 mediated cell adhesion” (Mitsubishi Tanabe Pharma Corporation, priority 1999, dated 2008).

One may read the melting point as the temperature, or range, at which the solid turns liquid.

`CC(C)(C)OC(=O)c1c(Cl)cc(N2C(=O)N3CCCC3(Cc3ccc(Br)cc3)C2=O)cc1Cl` (stereo not shown) [Example 225, 5-(4-Bromobenzyl)-3-[3,5-dichloro-4-(t-butoxycarbonyl)phenyl]-1,3-diazabicyclo[3.3.0]octane-2,4-dione]: the melting point lay in the range of 109 to 110 °C.

For `N[C@@H]1CN2C(=O)N(c3cc(Cl)cc(Cl)c3)C(=O)[C@@]2(Cc2ccc(OC(F)(F)F)cc2)C1` [Example 300, (5R, 7S)-5-[4-(Trifluoromethoxy)benzyl]-3-(3,5-dichlorophenyl)-7-amino-1,3-diazabicyclo[3.3.0]octane-2,4-dione], the melting point was determined as 43.3 °C.

Turning to `N#Cc1ccc(CC23CCCN2C(=O)N(c2cc(Cl)cc(Cl)c2N)C3=O)cc1` (stereo not shown) [Example 240, 5-(4-Cyanobenzyl)-3-(2-amino-3,5-dichlorophenyl)-1,3-diazabicyclo[3.3.0]octane-2,4-dione], the melting point was found to be 122.2 °C.

`O=C1N(c2cc(Cl)cc(Cl)c2)C(=O)C2(Cc3ccc(OC(F)(F)F)cc3)C[C@@H](O)CN12` (stereo in doubt) [Example 268, (5R, 7R)-5-[4-(Trifluoromethoxy)benzyl]-3-(3,5-dichlorophenyl)-7-hydroxy-1,3-diazabicyclo[3.3.0]octane-2,4-dione] gave a melting point of 50.4 °C.

`N#Cc1ccc(CC23CCCN2C(=O)N(Cc2ccncc2)C3=O)cc1` (stereo not shown) [Example 108, 5-(4-Cyanobenzyl)-3-(4-pyridylmethyl)-1,3-diazabicyclo[3.3.0]octane-2,4-dione]: the melting point was determined as 154 °C.

`O=C1N(c2cc(Cl)cc(Cl)c2)C(=O)[C@]2(Cc3ccc(Br)cc3)C[C@H](O)CN12` [Example 5, (5S,7S)-5-(4-Bromobenzyl)-3-(3,5-dichlorophenyl)-7-hydroxy-1,3-diazabicyclo[3.3.0]octane-2,4-dione] came in with a melting point of 88.3 °C.

The compound `O=C1N(c2cc(Cl)cc(Cl)c2)C(=O)C2(Cc3ccc(-c4cccc(CO)c4)cc3)CCCN12` (stereo not shown) [Example 222, 5-[4-(3-Hydroxymethylphenyl)benzyl]-3-(3,5-dichlorophenyl)-1,3-diazabicyclo[3.3.0]octane-l2,4-dione] came in with a melting point of 77.1 °C.

On to `O=C1N(c2cc(Cl)nc(Cl)c2)C(=O)[C@@]2(Cc3ccc(OC(F)(F)F)cc3)C[C@@H](O)CN12` [Example 58, (5R,7R)-5-[4-(Trifluoromethoxy)benzyl]-3-(2,6-dichloro-4-pyridyl)-7-hydroxy-1,3-diazabicyclo[3.3.0]octane-2,4-dione], for which the melting point was 52.4 °C.

Compound `O=C1N(c2cc(Cl)nc(Cl)c2)C(=O)C2(Cc3ccc(O)cc3)CCCN12` (stereo not shown) [Example 196, 5-(4-Hydroxybenzyl)-3-(2,6-dichloro-4-pyridyl)-1,3-diazabicyclo[3.3.0]octane-2,4-dione] displayed a melting point of 164.9 °C.

In the case of `CS(=O)(=O)NCC(=O)N[C@@H]1CN2C(=O)N(c3cc(Cl)nc(Cl)c3)C(=O)[C@@]2(Cc2ccc(OC(F)(F)F)cc2)C1` [Example 253, (5R, 7S)-5-[4-(Trifluoromethoxy)benzyl]-3-(2,6-dichloro-4-pyridyl)-7-[(methansulfonylaminoacetyl)amino]-1,3-diazabicyclo[3.3.0]octane-2,4-dione], the melting point was found to be 104.9 °C.

Consider `CC(C)(C)OC(=O)CN1CCN2C(=O)N(c3cc(Cl)cc(Cl)c3)C(=O)C2(Cc2ccc(Br)cc2)C1` (stereo not shown) [Example 30, 4-(tert-Butoxycarbonylmethyl)-6-(4-bromobenzyl)-8-(3,5-dichlorophenyl)-1,4,8-triazabicyclo[4.3.0]nonane-7,9-dione], for which the melting point is 74.7 °C.

Compound `COc1cc(OC)cc(N2C(=O)N3CCCC3(Cc3ccc(Br)cc3)C2=O)c1` (stereo not shown) [Example 235] had a melting point of 154.8 °C.

`N#Cc1ccc(CC23CCNN2C(=O)N(c2cc(Cl)nc(Cl)c2)C3=O)cc1` (stereo not shown) [Example 57, 5-(4-Cyanobenzyl)-3-(2,6-dichloro-4-pyridyl)-1,3,8-triazabicyclo [3.3.0]octane-2,4-dione] had a melting point of 187 °C.
